{
  "source": "patent US12691112B2",
  "about": "“FGFR tyrosine kinase inhibitors for the treatment of urothelial carcinoma” (Janssen Pharmaceutica NV, priority 2019, dated 2026)",
  "system": "subjects with metastatic or surgically unresectable urothelial cancer",
  "key": {"[1]": {"settings": "all-causality, 6 mg continuous, n = 78"}},
  "data": [
    {"smiles": "COc1cc(OC)cc(N(CCNC(C)C)c2ccc3ncc(-c4cnn(C)c4)nc3c2)c1", "note": "[erdafitinib, N-(3,5-dimethoxy-phenyl)-N′-(1-methylethyl)-N-[3-(1-methyl-1H-pyrazol-4-yl)quinoxalin-6-yl]ethane-1,2-diamine]", "values": [
      {"measurement": "Treatment-related Paronychia, grade 3", "setting": "8 mg continuous, n = 99", "result": "3 (3) no. (%)"},
      {"measurement": "Treatment-related Stomatitis, any grade", "setting": "8 mg continuous, n = 99", "result": "54 (55) no. (%)"},
      {"measurement": "Treatment-related Stomatitis, grade 1", "setting": "8 mg continuous, n = 99", "result": "19 (19) no. (%)"},
      {"measurement": "Treatment-related Stomatitis, grade 2", "setting": "8 mg continuous, n = 99", "result": "26 (26) no. (%)"},
      {"measurement": "Treatment-related Stomatitis, grade 3", "setting": "8 mg continuous, n = 99", "result": "9 (9) no. (%)"},
      {"measurement": "Treatment-related Vision blurred, any grade", "setting": "8 mg continuous, n = 99", "result": "16 (16) no. (%)"},
      {"measurement": "Treatment-related Vision blurred, grade 1", "setting": "8 mg continuous, n = 99", "result": "10 (10) no. (%)"},
      {"measurement": "Treatment-related Vision blurred, grade 2", "setting": "8 mg continuous, n = 99", "result": "6 (6) no. (%)"},
      {"measurement": "Treatment-related Vision blurred, grade 3", "setting": "8 mg continuous, n = 99", "result": "0 no. (%)"},
      {"measurement": "Treatment-related Weight decreased, any grade", "setting": "8 mg continuous, n = 99", "result": "10 (10) no. (%)"},
      {"measurement": "Treatment-related Weight decreased, grade 1", "setting": "8 mg continuous, n = 99", "result": "5 (5) no. (%)"},
      {"measurement": "Treatment-related Weight decreased, grade 2", "setting": "8 mg continuous, n = 99", "result": "5 (5) no. (%)"},
      {"measurement": "Treatment-related Weight decreased, grade 3", "setting": "8 mg continuous, n = 99", "result": "0 no. (%)"},
      {"measurement": "some type of eye disorder, regardless of relation to treatment", "setting": "8 mg per day continuous", "result": 63, "unit": "%"},
      {"measurement": "treatment-related CSR grade ≥3 events", "setting": "8 mg per day continuous", "result": 3, "unit": "%"},
      {"measurement": "treatment-related central serous retinopathy (CSR)", "setting": "8 mg per day continuous", "result": 21, "unit": "%"},
      {"measurement": "treatment-related dry skin", "setting": "8 mg per day continuous", "result": 32, "unit": "%"},
      {"measurement": "treatment-related effects on the nails", "setting": "8 mg per day continuous", "result": 52, "unit": "%"},
      {"measurement": "treatment-related effects on the skin", "setting": "8 mg per day continuous", "result": 49, "unit": "%"},
      {"measurement": "treatment-related hand-foot syndrome", "setting": "8 mg per day continuous", "result": 22, "unit": "%"},
      {"measurement": "treatment-related hyperphosphatemia", "setting": "8 mg per day continuous", "result": 73, "unit": "%"},
      {"measurement": "treatment-related nail dystrophy", "setting": "8 mg per day continuous", "result": 16, "unit": "%"},
      {"measurement": "treatment-related onycholysis", "setting": "8 mg per day continuous", "result": 16, "unit": "%"},
      {"measurement": "patients with grade ≥3 treatment-emergent adverse events", "setting": "8 mg per day continuous group uptitrated to 9 mg per day", "result": 68, "unit": "%"},
      {"measurement": "grade 1 or 2 events among patients with eye disorders", "setting": "8 mg per day continuous, patients with eye disorders (n=62)", "result": 84, "unit": "%"},
      {"measurement": "Serious treatment-emergent: Dyspnea", "setting": "10 mg intermittent, n = 33", "result": "2 (6) no. (%)"},
      {"measurement": "Serious treatment-emergent: Eye disorders", "setting": "10 mg intermittent, n = 33", "result": "1 (3) no. (%)"},
      {"measurement": "Serious treatment-emergent: Gastrointestinal disorders", "setting": "10 mg intermittent, n = 33", "result": "2 (6) no. (%)"},
      {"measurement": "Serious treatment-emergent: Infections and infestations", "setting": "10 mg intermittent, n = 33", "result": "2 (6) no. (%)"},
      {"measurement": "Serious treatment-emergent: Metabolism and nutrition disorders", "setting": "10 mg intermittent, n = 33", "result": "1 (3) no. (%)"},
      {"measurement": "Serious treatment-emergent: Nervous system disorders", "setting": "10 mg intermittent, n = 33", "result": "0 no. (%)"},
      {"measurement": "Serious treatment-emergent: Renal and urinary disorders", "setting": "10 mg intermittent, n = 33", "result": "1 (3) no. (%)"},
      {"measurement": "Serious treatment-emergent: Respiratory, thoracic, mediastinal disorders", "setting": "10 mg intermittent, n = 33", "result": "4 (12) no. (%)"},
      {"measurement": "Serious treatment-emergent: Urinary tract infection", "setting": "10 mg intermittent, n = 33", "result": "0 no. (%)"},
      {"measurement": "Serious treatment-emergent: Urosepsis", "setting": "10 mg intermittent, n = 33", "result": "0 no. (%)"},
      {"measurement": "Total number of patients with serious treatment-emergent adverse events", "setting": "10 mg intermittent, n = 33", "result": "14 (42) no. (%)"},
      {"measurement": "Hyperphosphatemia reported", "setting": "Regimen 3", "result": 77, "unit": "%"},
      {"measurement": "hyperphosphatemia leading to dose reduction", "setting": "Regimen 3", "result": 9, "unit": "%"},
      {"measurement": "hyperphosphatemia managed by dose interruption", "setting": "Regimen 3", "result": 23, "unit": "%"},
      {"measurement": "patients discontinued due to treatment-emergent adverse events", "setting": "Regimen 3", "result": 13, "unit": "%"},
      {"measurement": "patients reporting treatment-emergent adverse events", "setting": "Regimen 3", "result": "All patients"},
      {"measurement": "patients who required dose reduction", "setting": "Regimen 3", "result": 56, "unit": "%"},
      {"measurement": "patients with serious treatment-emergent adverse events", "setting": "Regimen 3", "result": 39, "unit": "%"},
      {"measurement": "stomatitis leading to dose reduction", "setting": "Regimen 3", "result": 16, "unit": "%"},
      {"measurement": "treatment-emergent adverse events grade 3 or 4", "setting": "Regimen 3", "result": 67, "unit": "%"},
      {"measurement": "patients who required ≥1 dose reduction", "setting": "Regimen 3, among 41 patients uptitrated to 9 mg per day", "result": 59, "unit": "%"},
      {"measurement": "central serious retinopathy events resolved", "setting": "all unresolved events grade 1 or 2", "result": "Seventy-six percent"},
      {"measurement": "Abdominal pain, any grade", "setting": "[1]", "result": 14, "unit": "no."},
      {"measurement": "Abdominal pain, grade 1", "setting": "[1]", "result": 7, "unit": "no."},
      {"measurement": "Abdominal pain, grade 2", "setting": "[1]", "result": 5, "unit": "no."},
      {"measurement": "Abdominal pain, grade ≥ 3", "setting": "[1]", "result": 2, "unit": "no."},
      {"measurement": "Alanine aminotransferase increased, any grade", "setting": "[1]", "result": 9, "unit": "no."},
      {"measurement": "Alanine aminotransferase increased, grade 1", "setting": "[1]", "result": 7, "unit": "no."},
      {"measurement": "Alanine aminotransferase increased, grade 2", "setting": "[1]", "result": 2, "unit": "no."},
      {"measurement": "Alanine aminotransferase increased, grade ≥ 3", "setting": "[1]", "result": 0, "unit": "no."},
      {"measurement": "Alopecia, any grade", "setting": "[1]", "result": 10, "unit": "no."},
      {"measurement": "Alopecia, grade 1", "setting": "[1]", "result": 9, "unit": "no."},
      {"measurement": "Alopecia, grade 2", "setting": "[1]", "result": 1, "unit": "no."},
      {"measurement": "Alopecia, grade ≥ 3", "setting": "[1]", "result": 0, "unit": "no."},
      {"measurement": "Anemia, any grade", "setting": "[1]", "result": 13, "unit": "no."},
      {"measurement": "Anemia, grade 1", "setting": "[1]", "result": 0, "unit": "no."},
      {"measurement": "Anemia, grade 2", "setting": "[1]", "result": 8, "unit": "no."},
      {"measurement": "Anemia, grade ≥ 3", "setting": "[1]", "result": 5, "unit": "no."},
      {"measurement": "Arthralgia, any grade", "setting": "[1]", "result": 8, "unit": "no."},
      {"measurement": "Arthralgia, grade 1", "setting": "[1]", "result": 5, "unit": "no."},
      {"measurement": "Arthralgia, grade 2", "setting": "[1]", "result": 2, "unit": "no."},
      {"measurement": "Arthralgia, grade ≥ 3", "setting": "[1]", "result": 1, "unit": "no."},
      {"measurement": "Aspartate aminotransferase increased, any grade", "setting": "[1]", "result": 9, "unit": "no."},
      {"measurement": "Aspartate aminotransferase increased, grade 1", "setting": "[1]", "result": 7, "unit": "no."},
      {"measurement": "Aspartate aminotransferase increased, grade 2", "setting": "[1]", "result": 2, "unit": "no."},
      {"measurement": "Aspartate aminotransferase increased, grade ≥ 3", "setting": "[1]", "result": 0, "unit": "no."},
      {"measurement": "Asthenia, any grade", "setting": "[1]", "result": 18, "unit": "no."},
      {"measurement": "Asthenia, grade 1", "setting": "[1]", "result": 5, "unit": "no."},
      {"measurement": "Asthenia, grade 2", "setting": "[1]", "result": 4, "unit": "no."},
      {"measurement": "Asthenia, grade ≥ 3", "setting": "[1]", "result": 9, "unit": "no."},
      {"measurement": "Back pain, any grade", "setting": "[1]", "result": 11, "unit": "no."},
      {"measurement": "Back pain, grade 1", "setting": "[1]", "result": 6, "unit": "no."},
      {"measurement": "Back pain, grade 2", "setting": "[1]", "result": 3, "unit": "no."},
      {"measurement": "Back pain, grade ≥ 3", "setting": "[1]", "result": 2, "unit": "no."},
      {"measurement": "Blood creatinine increased, any grade", "setting": "[1]", "result": 6, "unit": "no."},
      {"measurement": "Blood creatinine increased, grade 1", "setting": "[1]", "result": 3, "unit": "no."},
      {"measurement": "Blood creatinine increased, grade 2", "setting": "[1]", "result": 3, "unit": "no."},
      {"measurement": "Blood creatinine increased, grade ≥ 3", "setting": "[1]", "result": 0, "unit": "no."},
      {"measurement": "Conjunctivitis, any grade", "setting": "[1]", "result": 7, "unit": "no."},
      {"measurement": "Conjunctivitis, grade 1", "setting": "[1]", "result": 4, "unit": "no."},
      {"measurement": "Conjunctivitis, grade 2", "setting": "[1]", "result": 2, "unit": "no."}
    ]}
  ]
}
